Tests used:
Test in all cases: relative viability (nuclei count vs DMSO), 5 days (fraction); higher = more cells survive
[1] = compound: CC1=C(C(=NN1)C)CC2=C(C3=C(S2)N(C(=O)N(C3=O)C)CC(C)C)C(=O)N4C[C@@H](CO4)O + Nc1nc2[nH]cc(CCc3ccc(C(=O)N[C@@H](CCC(=O)O)C(=O)O)cc3)c2c(=O)[nH]1 [Pemetrexed] (partner 0.2 µM)
How it was run: (§1)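 Relative viability is defined as nuclei in treated wells over nuclei in vehicle wells. Duplicate plates were run and medians reported. Lung cancer cell lines in 1536-well plates were dosed by pin tool one day after seeding, with one drug or with a fixed anchor-drug dose plus five library-drug doses (not always all listed) in √10 steps, and nuclei were counted after 5 days.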

[2] = compound: Cc1ccccc1C(C(=O)NC1CCCCC1)N(C(=O)Cn1ccnc1C)c1cccc(F)c1 [IDH-C35] + COc1cccc2cc(-c3nc([C@H]4CC[C@H](C(=O)O)CC4)n4ncnc(N)c34)[nH]c12 [OSI-027] (partner 0.5 µM)
How it was run: as §1

[3] = compound: Cc1ccccc1C(C(=O)NC1CCCCC1)N(C(=O)Cn1ccnc1C)c1cccc(F)c1 [IDH-C35] + Nc1ncn([C@H]2C[C@H](O)[C@@H](CO)O2)c(=O)n1 [Decitabine] (partner 2 µM)
How it was run: as §1

[4] = compound: Cc1ccccc1C(C(=O)NC1CCCCC1)N(C(=O)Cn1ccnc1C)c1cccc(F)c1 [IDH-C35] + O=C(c1cc(Cc2n[nH]c(=O)c3ccccc23)ccc1F)N1CCN(C(=O)C2CC2)CC1 [Olaparib] (partner 8 µM)
How it was run: as §1

Cell Line	relative viability ([1]; first compound 0.0025 µM)	relative viability ([1]; first compound 0.007906 µM)	relative viability ([1]; first compound 0.025 µM)	relative viability ([1]; first compound 0.07906 µM)	relative viability ([1]; first compound 0.25 µM)	relative viability ([2]; first compound 0.08 µM)	relative viability ([2]; first compound 0.253 µM)	relative viability ([2]; first compound 0.8 µM)	relative viability ([2]; first compound 2.53 µM)	relative viability ([2]; first compound 8 µM)	relative viability ([3]; first compound 0.08 µM)	relative viability ([3]; first compound 0.253 µM)	relative viability ([3]; first compound 0.8 µM)	relative viability ([3]; first compound 2.53 µM)	relative viability ([3]; first compound 8 µM)	relative viability ([4]; first compound 0.08 µM)	relative viability ([4]; first compound 0.253 µM)	relative viability ([4]; first compound 0.8 µM)	relative viability ([4]; first compound 2.53 µM)	relative viability ([4]; first compound 8 µM)
HCC-44	0.633	0.643	0.675	0.599	0.694	0.538	0.641	0.595	0.61	0.625	0.997	0.914	0.91	0.939	0.901	0.987	0.927	0.988	0.964	0.923
HCC-827	0.245	0.27	0.272	0.288	0.237	0.78	0.662	0.694	0.71	0.771	0.309	0.318	0.282	0.317	0.296	0.545	0.608	0.614	0.708	0.658
NCI-H1623						0.45	0.421	0.394	0.435	0.423										
NCI-H2347	0.434	0.438	0.41	0.378	0.383	0.467	0.48	0.477	0.324	0.369	0.647	0.651	0.661	0.599	0.654	0.577	0.628	0.609	0.522	0.554
PC-14	0.158	0.126	0.155	0.122	0.121	0.956	0.798	0.755	0.837	0.711	0.211	0.206	0.239	0.226	0.214	0.251	0.271	0.222	0.292	0.237
NCI-H1651	0.587	0.598	0.531	0.56	0.53	0.7	0.686	0.746	0.644	0.703	0.528	0.629	0.593	0.615	0.555	0.173	0.179	0.181	0.166	0.188
HARA	0.218	0.215	0.262	0.273	0.255	0.607	0.735	0.484		0.405	0.434	0.438	0.625	0.504	0.505	0.835	1.03	0.742	0.725	0.845
NCI-H1650	0.321	0.406	0.367	0.369	0.321	0.667	0.593	0.637	0.659	0.571	0.417	0.358	0.408	0.465	0.453	0.783	0.65	0.769	0.588	0.757
NCI-H1395	0.925	0.791	0.827	0.796	0.718	0.66	0.701	0.709	0.618	0.579	0.695	0.649	0.676	0.754	0.653	0.436	0.449	0.473	0.463	0.464
LU99A	0.18	0.175	0.159	0.211	0.179	0.335	0.329	0.276	0.293	0.286	0.963	0.853	0.944	0.867	0.849	0.254	0.247	0.291	0.259	0.248
NCI-H1355	1.09	1.08	1.04	0.847	0.927	0.422	0.445	0.382	0.466	0.395	0.347	0.379	0.353	0.419	0.344	0.71	0.755	0.749	0.741	0.73
HCC-78	0.904	0.887	0.897	0.951	0.925	0.349	0.362	0.633	0.388	0.332	0.701	0.579	0.703	0.605	0.707	0.91	0.78	0.883	0.932	0.741
NCI-H1563	0.796	0.795	0.686	0.742	0.857	0.769	0.721	0.788	0.768	0.727										
HCC-15	0.214	0.214	0.225	0.215	0.211	0.632	0.656	0.614		0.604	0.61	0.546	0.689	0.579	0.635	0.712	0.733	0.724		0.667
EKVX	0.365	0.429	0.412	0.293	0.422	0.752	0.641	0.646	0.657	0.68	0.343	0.399	0.4	0.321	0.339	0.859	0.892	0.836	0.918	0.802
NCI-H2087	0.575	0.675	0.629	0.587	0.695	0.59	0.518	0.537		0.532	0.284	0.25	0.274	0.302	0.254	0.561	0.533	0.627	0.58	0.558
LK-2	0.307	0.347	0.245	0.3	0.257	0.213	0.226	0.188	0.24	0.236	0.327	0.368	0.205	0.395	0.289	0.842	0.772	0.575	0.701	0.73
NCI-H1437	0.341	0.322	0.331	0.354	0.316	0.876	0.907	0.842	0.828	0.756	0.56	0.56	0.576	0.572	0.525	0.61	0.649	0.609	0.619	0.602
COR-L23	0.22	0.214	0.195	0.223	0.204	0.843	0.696	0.861	0.829	0.731	0.426	0.471	0.421	0.478	0.459	0.332	0.391	0.317	0.31	0.349

Cell Line	relative viability ([1]; first compound 0.0025 µM)	relative viability ([1]; first compound 0.007906 µM)	relative viability ([1]; first compound 0.025 µM)	relative viability ([1]; first compound 0.07906 µM)	relative viability ([1]; first compound 0.25 µM)	relative viability ([2]; first compound 0.08 µM)	relative viability ([2]; first compound 0.253 µM)	relative viability ([2]; first compound 0.8 µM)	relative viability ([2]; first compound 2.53 µM)	relative viability ([2]; first compound 8 µM)	relative viability ([3]; first compound 0.08 µM)	relative viability ([3]; first compound 0.253 µM)	relative viability ([3]; first compound 0.8 µM)	relative viability ([3]; first compound 2.53 µM)	relative viability ([3]; first compound 8 µM)	relative viability ([4]; first compound 0.08 µM)	relative viability ([4]; first compound 0.253 µM)	relative viability ([4]; first compound 0.8 µM)	relative viability ([4]; first compound 2.53 µM)	relative viability ([4]; first compound 8 µM)
ABC-1						0.528	0.516	0.582	0.531	0.441	0.838	1.12	0.975	0.98	0.95	0.668	1.04	0.77	0.819	0.906
SW 900	0.489	0.456	0.489	0.529	0.434	0.496	0.584	0.601	0.353	0.625	0.467	0.396		0.472	0.438	0.915	0.819		1.02	0.83
NCI-H838	0.261	0.229	0.236	0.243	0.224	0.406	0.402	0.369	0.383	0.398	0.446	0.414	0.468	0.464	0.486	0.797	0.787	0.779	0.785	0.745
NCI-H1648	0.69	0.783	0.61	0.502	0.673	0.289	0.234	0.274	0.275	0.257		0.598	0.502	0.51	0.441		0.765	0.801	0.681	0.782
A549											0.313	0.263	0.312	0.195	0.223	0.447	0.346	0.268	0.168	0.112
A-427	1	1.07	0.935	0.906	0.983	0.477	0.49	0.463	0.471	0.448	0.622	0.57	0.598	0.526	0.58	0.698	0.637	0.732	0.742	0.77
NCI-H1792	0.932	0.6	0.768	0.644	0.719	0.725	0.718	0.705	0.742	0.75	0.45	0.48	0.476	0.539	0.533	0.508	0.444	0.417	0.474	0.362
LCLC-97TM1	0.179	0.19	0.173	0.152	0.202	0.557	0.614	0.508	0.447	0.421	0.219	0.247	0.255		0.238	0.322	0.291	0.341		0.47
NCI-H1703																0.293	0.47	0.441	0.383	0.434
LCLC-103H	0.437	0.474	0.444	0.459	0.505	0.458	0.487	0.473	0.428	0.457	0.81	0.676	0.726	0.744	0.834	0.788	0.71	0.807	0.777	0.711
PC-3 [JPC-3]	1.11	1.03	1.01	1.27	0.834	0.767	0.74	0.747	0.809	0.747	0.843	0.795	0.864	0.806	0.807	1.15	1.11	1.2	1.07	1.06
BEN	0.697	0.836	0.558	0.665	0.687	0.308	0.318	0.298	0.328	0.261	0.683	0.707	0.681	0.707	0.75	1.06	1.11	1.03	0.952	0.995
Calu-6																0.57	0.563	0.609	0.558	0.571
EBC-1																0.702	0.689	0.724	0.778	0.703
NCI-H1299																1.04	0.977	0.979	1.04	0.998
NCI-H2228	0.317	0.342	0.339	0.322	0.324	0.729	0.687	0.55	0.586	0.535						0.601	0.781	0.61	0.71	0.516
IA-LM																0.872	0.88	0.731	0.744	0.963
NCI-H727						0.805	0.474	0.464	0.588	0.592	0.797	0.979	0.708	0.845	0.939	0.633	0.873	0.705	0.7	0.717
CAL-12T	1.28	1.36	0.956	1.08	1.38	0.642	0.759	0.667	0.704	0.489						0.761	0.73	0.629	0.747	0.701
